The text below walks through data of patent US11638745B2, “Method to improve neurologic outcomes in temperature managed patients” (University of Pittsburgh—Of the Commonwealth System of …, priority 2015, dated 2023).

The conditions of data set [1]: used to chemically lower core body temperature; cited from earlier work.
The conditions of data set [2]: mammals; cited from earlier work.
The subject of data set [3] is RBM3. Description: RBM3 protein levels by Western blot in drug-treated primary cortical neurons at 37° C. or 36° C. The conditions noted are these: for RBM3 levels: 24 h treatment; for RBM3 protein expression: DIV7 neurons cultured at 37° C., 24 h treatment with increasing dose. The class given is cell-based, rat. Here is the method:
Primary Cortical Neuron Culture. Embryos (mixed gender) were isolated from timed pregnant (E16-17) Sprague Dawley rats. Neuron cultures were performed as previously described (Jackson TC, et al. (2013) Pharmacological inhibition of pleckstrin homology domain leucine-rich repeat protein phosphatase is neuroprotective: differential effects on astrocytes. J Pharmacol Exp Ther 347:516-528). Cortices were dissected in ice-cold Hanks balanced salt solution (HBSS; Life Technologies, Grand Island, N.Y., USA) containing sodium bicarbonate (SIGMA), penicillin-streptomycin (Life Technologies), and 4-(2-hydroxyethyl)-1-piperazineethanesulfonic acid (HEPES; Life Technologies). Brain tissues were dissected under a Leica M651 light microscope (Buffalo Grove, Ill., USA), and placed in a 1.5 mL tube containing ˜1 mL prepared HBSS. Tissues were minced and transferred to a 15 mL conical tube. Cells were spun 5 min/200 g/4° C. Supernatant was aspirated, cells resuspended in 2 mL trypsin solution, and incubated 8 min at 37° C. with gentle mixing. Trypsin activity was quenched in 10 mL Neurobasal/B27 (Life Technologies) containing 10% fetal bovine serum (FBS; Thermo Fisher Scientific, Pittsburgh, Pa., USA). Cells were transferred into a new 15 mL conical tube and spun 5 min/200 g/4° C. Supernatant was replaced with 1.5 mL trituration media. Cells were dissociated by 10 passages through a fire-polished glass Pasteur pipette. The cell pellet was resuspended in plating media warmed to 37° C. (Neurobasal Media/B27 supplement prepared+25 μM L-Glutamic Acid+Pen-Strep). Cell number was quantified by automatic counting on a Cellometer (Nexcelom Bioscience, Lawrence, Mass., USA). Cells were seeded onto 6-well culture plates coated with poly-D-lysine (density ˜1.2-1.5×10^6/well). Cultures were maintained by half media replacement every ˜3-4 days in vitro (DIV). The mitotic inhibitor cytosine β-D-arabinofuranoside hydrochloride (ARA-C; 4 μM final concentration) was added in study 1 experiment (e.g. DIV10-11 cultures) to ensure purity of neuronal biochemistry for initial assessment of temperature treatments. Mitotic inhibitors at low levels are non-toxic but still potentially represent a mild stressor (though necessary to guarantee neuron purity) (Ahlemeyer B, et al., (2003) Cytosine arabinofuranoside-induced activation of astrocytes increases the susceptibility of neurons to glutamate due to the release of soluble factors. Neurochem Int 42:567-581). Results of temperature treatments were confirmed in younger DIV6 neurons in the absence of ARA-C (neuron enriched cultures; >90% neurons). Astrocytes were allowed to proliferate in aged cultures, which were not treated with ARA-C. It was observed that astrocytes are necessary for long-term survival of neuron cultures (i.e. DIV26 mature neuron cultures).
Hypothermia Protocols: Neurons were maintained in a 37° C. (normothermic) incubator. Before start of hypothermia, two identical incubators of the same make/model with humidity of ˜95% (all in the same room) were programmed to 36° C. and 33° C. Incubators were allowed a minimum of 48 h equilibration time prior to starting hypothermic experiments. In some experiments, as an additional control, a thermometer was placed inside hypothermic incubators as a secondary gauge of temperature. Temperature as assessed by that approach was independently confirmed to never be under target temperature and fluctuate by no more than ˜0.5° C. On DIV of interest, culture plates were assigned to one of the three experimental temperatures for 24 or 48 h.
Drug Treatments: Drugs were prepared in DMSO or PBS (i.e. for FGF21). All drugs were diluted in conditioned culture media and applied for 24 h. Controls received equal amounts of DMSO/PBS without drugs. Primary neurons were harvested for biochemistry at key time points. RBM3 and CIRBP levels were measured by Western blot. Investigators were not blinded to temperature treatment groups.
Western Blot. […]
For orientation: A western blot detects proteins with antibodies after separation by electrophoresis.

Data set [4] has as its system RBM3. The data set is described as above. The class given is cell-based, rat. The conditions noted are these: mature DIV26 neurons, 48 h at 36° C., drug combinations; melatonin 100 μM, T090 1 μM.
The test system of a further data set is RBM3 mRNA. To be noted: mouse liver, microarray; cited from earlier work.
The test system of data set [5] is piglet model of perinatal ischemic brain injury. The conditions noted are these: hypothermia 33.5° C.; cited from earlier work.
The next data set deals with AKT/ERK. Description: AKT/ERK phosphorylation by Western blot in FGF21-treated neurons. To be noted: neurons at 37° C., 24 h later. It is filed as cell-based, rat. The procedure: Primary Cortical Neuron Culture. Embryos (mixed gender) were isolated from timed pregnant (E16-17) Sprague Dawley rats. Neuron cultures were performed as previously described (Jackson TC, et al. (2013) Pharmacological inhibition of pleckstrin homology domain leucine-rich repeat protein phosphatase is neuroprotective: differential effects on astrocytes. J Pharmacol Exp Ther 347:516-528). Cortices were dissected in ice-cold Hanks balanced salt solution (HBSS; Life Technologies, Grand Island, N.Y., USA) containing sodium bicarbonate (SIGMA), penicillin-streptomycin (Life Technologies), and 4-(2-hydroxyethyl)-1-piperazineethanesulfonic acid (HEPES; Life Technologies). Brain tissues were dissected under a Leica M651 light microscope (Buffalo Grove, Ill., USA), and placed in a 1.5 mL tube containing ˜1 mL prepared HBSS. Tissues were minced and transferred to a 15 mL conical tube. Cells were spun 5 min/200 g/4° C. Supernatant was aspirated, cells resuspended in 2 mL trypsin solution, and incubated 8 min at 37° C. with gentle mixing. […] Cell number was quantified by automatic counting on a Cellometer (Nexcelom Bioscience, Lawrence, Mass., USA). […]
Drug Treatments: Drugs were prepared in DMSO or PBS (i.e. for FGF21). […] RBM3 and CIRBP levels were measured by Western blot. […]
Western Blot. […] Protein concentration was determined using the BCA assay (Thermo Scientific-PIERCE). […]

The subject of a further data set is PND17 rats given CCI. The data set can be described thus: PND17 CCI with TH/TTM ± FGF21 (MWM behavior, cell death histology). The class given is in vivo, rat. The conditions noted are these: 1 mg/kg FGF21 IV at start and end of TH/TTM. The procedure:
TTM and TH. PND17 and 12 wk adult Sprague Dawley rats receive external cooling. Endogenous RBM3/β-Klotho levels is compared in male and female rats. The TTM group is cooled to 36° C. within ˜5 min then maintained to target temperature for 7 h: 25 min. The TH group is cooled to 33° C. over ˜1 h then to target temperature for 3 h: 15 min then rewarmed at a rate of 1° C./hr. Time spent<37° C. is equal in all groups (8 h: 30 mins). FIGS. 11A, 11B, 12A, and 12B illustrate exemplary protocols for these groups.
PND17 CCI. Rats are given CCI in Aim 271, 72. Isoflurane anesthetized ˜35 g PND17 rats are craniotomized at the left parietal cortex and injured by pneumatic impactor (velocity, 4 m/s; depth, 2.5 mm). Randomization is by (A) temperature (37° C., 36° C., 33° C.), and (B)±CCI±1 mg/kg FGF21 or PBS vehicle. Two bolus IV injections of drug will be given—at the start and end of TH/TTM. Technicians are blind to treatments.
MWM Behavior. Rats are given MWM testing 73, 74. […] Motor skill is assessed measuring swim speed proving cognitive performance is not confounded by motor deficits.
Cell Death. […] Surviving CA1/CA3 cells are counted in H & E stained brain sections 7 d post-injury by unbiased stereology. 21 d contusion volume is measured after MWM in separate rats […]

The mark [6] stands for this setting: young DIV6 neurons at 37° C., same concentrations.
Setting [7] is: young DIV6 neurons cooled to 36° C., 5 nM FGF21, 100 μM melatonin, 1 μM T090, 5 μM SRT1720, 1 μM AZD1080.

“Also recorded” adds a separate entry of the source.

With `Nc1ncnc2c1ncn2[C@@H]1O[C@H](COP(=O)(O)O)[C@@H](O)[C@H]1O` [5-AMP, adenosine monophosphate], the side effects result in data set [1] was “profound hypotension and hyperglycemia”. Also, the body temperature result in data set [2] is listed as “chemically induce hypothermia”.
Regarding `N#Cc1ccc2[nH]c(O)c(-c3ccc(CN4CCOCC4)cn3)c2c1` [AZD1080], the RBM3 levels result with RBM3 [3] (setting [6]) and with RBM3 [3] (setting [7]) was “Neither SRT1720 (Sirtuin antagonist) nor AZD1080 (GSK-3β antagonist) increased RBM3 levels; also recorded: did not affect RBM3 levels” throughout.
On to `O=C(Nc1ccccc1-c1cn2c(CN3CCNCC3)csc2n1)c1cnc2ccccc2n1` [SRT1720], for which the RBM3 levels result with RBM3 [3] (setting [6]) and with RBM3 [3] (setting [7]) was “Neither SRT1720 (Sirtuin antagonist) nor AZD1080 (GSK-3β antagonist) increased RBM3 levels; also recorded: did not affect RBM3 levels” throughout.
Consider `O=S(=O)(c1ccccc1)N(CC(F)(F)F)c1ccc(C(O)(C(F)(F)F)C(F)(F)F)cc1` [T090], for which, in the data set on RBM3 [4], the RBM3 induction result was “failed to do so”. In the data set with RBM3 [3], the RBM3 protein expression result is reported as “minor effects on RBM3 protein expression”. Also, the RBM3 levels result in the data set with RBM3 [3] (setting [6]) is on record as “mildly increased RBM3 levels”; with RBM3 [3] (young DIV6 neurons at 37° C., same concentrations, listed as T0901317), “mildly induced RBM3”; in the data set on RBM3 [3] (setting [7]), “mildly increased RBM3 levels”; with RBM3 [3] (young DIV6 neurons cooled to 36° C., 5 nM FGF21, 100 μM melatonin, 1 μM T090, 5 μM SRT1720, 1 μM AZD1080, listed as T0901317) it was “augmented RBM3 upregulation; also recorded: mildly induced RBM3”. Moreover, the “RBM3 mRNA” value with RBM3 mRNA was “upregulate RBM3 mRNA”.
Take `COc1ccc2[nH]cc(CCNC(C)=O)c2c1` [melatonin]: the hypothermia induced neuroprotection entry in data set [5] was “augments hypothermia (33.5° C.) induced neuroprotection”. The RBM3 induction entry in the data set on RBM3 [4] is on record as “failed to do so”. In the data set on RBM3 [3], the RBM3 protein expression result is “minor effects on RBM3 protein expression”. Further, the RBM3 levels entry was “failed to do so” in the data set with RBM3 [3] (setting [6]); “augmented RBM3 upregulation; also recorded: augmented RBM3 levels; also recorded: increased hypothermia-induced RBM3” in the data set on RBM3 [3] (setting [7]); “augment RBM3 induction” in the data set with RBM3 [3] (young DIV6 neurons cooled to 36° C., 5 nM FGF21, 100 μM melatonin, 1 μM T090, 5 μM SRT1720, 1 μM AZD1080, listed as Melatonin).

B1: FGF21: Fibroblast growth factor 21 protein, purchased from R&D Systems (protein, UniProt Q9NSA1 29-209, looked up)
Fibroblast growth factor 21: HPIPDSSPLLQFGGQVRQRYLYTDDAQQTEAHLEIREDGTVGGAADQSPESLLQLKALKPGVIQILGVKTSRFLCQRPDGALYGSLHFDPEACSFRELLLEDGYNVYQSEAHGLPLHLPGNKSPHRDPAPRGPARFLPLPGLPPALPEPPGILAPQPPDVGSSDPLSMVGPSQGRSPSYAS
In the case of B1, in the data set on AKT/ERK, the AKT/ERK phosphorylation result is “decreased”. The RBM3 induction result in the data set on RBM3 [4] was “failed to do so”. In the data set on RBM3 [3] (DIV7 neurons cultured at 36° C., 24 h, dose effect), the “RBM3 levels above baseline” value is given as “increased RBM3 above baseline in a bi-phasic manner”. For the same molecule, in the data set with RBM3 [3], the RBM3 protein expression result is listed as “minor effects on RBM3 protein expression”. Also, the RBM3 levels entry in the data set with RBM3 [3] (setting [6]) is on record as “failed to do so”; in the data set with RBM3 [3] (setting [7]) it was “augment RBM3 induction; also recorded: induces RBM3; also recorded: augments RBM3; also recorded: augmented RBM3 upregulation; also recorded: augmented RBM3 levels; also recorded: increased hypothermia-induced RBM3”. The “TH/TTM induced neuroprotection after a CCI” value in the data set on PND17 rats given CCI is “augments TH/TTM induced neuroprotection”. The body temperature entry in data set [2] is “slight body temperature reduction”.
